According to patent publication US9458132B2, “Therapeutic compounds and compositions and their use as PKM2 modulators” (AGIOS PHARMACEUTICALS, INC., priority 2012, dated 2016):

Key:
Assay type in all cases: biochemical
[1] = biological target: PKR R532W (Homo sapiens, UniProt P30613, R532W); experiment: PKR mutant assay, PKR R532W AC50; details: mutant PKR R532W enzyme
Procedure: (§1) • PKR or PKR mutant enzyme solution was diluted in assay buffer. • 2 μL of test compound was added into wells first, and then 180 μL reaction mix was added. • Reactions mixture with test compound was assembled except for ADP, and plates were stored for 60 minutes at room temperature. • 20 uL ADP was added to start reaction at room temperature and reaction progress was measured as changes in absorbance at 340 nm wavelength at room temperature.
(§2) Test Compound Preparation: • Test compound stock was made at 100x concentration in 100% DMSO (10 mM) • 1 to 3 dilutions were made for 11 points (i.e. 50 μl of first concentration added to 100 μl 100% DMSO to yield 3.33 mM, 50 μl of this added to 100 μl DMSO to yield 1.11 mM, and so forth) • 1 to 100 dilution into assay (2 μl in 200 μl) yielded starting concentration of 100 μM, decreasing 3 fold for 11 points • Assay Buffer: 100 mM KCl, 50 mM Tris 7.5, 5 mM MgCl2, 1 mM DTT, 0.03% BSA • Reaction Mixture: PKR mutant enzyme: 80-400 ng/well; ADP: 0.22-1.65 mM; PEP: 0.1-0.5 mM; NADH:180 uM; LDH: 0.5 units (Sigma#59023); DTT: 1 mM; BSA: 0.03%.
(§3) A compound described herein was diluted with DMSO and tested at 1 μM concentration. The enzyme was diluted in 1× Buffer: (100 mM KCl, 50 mM Tris 7.5, 5 mM MgCl2, 1 mM DTT, 0.03% BSA). 2 μL of compound solution was first added into wells, and then 180 μL of enzyme solution was added. Assays were assembled except for ADP, and plates were stored for 60 minutes at RT. 20 μL ADP was added to start the assay and assay output was evaluated using OD340 at SpectraMax. The assay was run at room temperature. • Final concentration: PKR R532W (100 ng/well), Tris pH 7.5 (50 mM), KCl (100 mM), MgCl2 (5 mM), ADP (0.36 mM), PEP (0.1 mM), NADH (180 μM), LDH (0.5 units, Sigma 59023), DTT (1 mM) and BSA (0.03%).

[2] = biological target: PKR R510Q (Homo sapiens, UniProt P30613, R510Q); experiment: PKR mutant assay, PKR R510Q AC50; details: mutant PKR R510Q enzyme
Chain of PKR R510Q (P30613 whole entry R510Q): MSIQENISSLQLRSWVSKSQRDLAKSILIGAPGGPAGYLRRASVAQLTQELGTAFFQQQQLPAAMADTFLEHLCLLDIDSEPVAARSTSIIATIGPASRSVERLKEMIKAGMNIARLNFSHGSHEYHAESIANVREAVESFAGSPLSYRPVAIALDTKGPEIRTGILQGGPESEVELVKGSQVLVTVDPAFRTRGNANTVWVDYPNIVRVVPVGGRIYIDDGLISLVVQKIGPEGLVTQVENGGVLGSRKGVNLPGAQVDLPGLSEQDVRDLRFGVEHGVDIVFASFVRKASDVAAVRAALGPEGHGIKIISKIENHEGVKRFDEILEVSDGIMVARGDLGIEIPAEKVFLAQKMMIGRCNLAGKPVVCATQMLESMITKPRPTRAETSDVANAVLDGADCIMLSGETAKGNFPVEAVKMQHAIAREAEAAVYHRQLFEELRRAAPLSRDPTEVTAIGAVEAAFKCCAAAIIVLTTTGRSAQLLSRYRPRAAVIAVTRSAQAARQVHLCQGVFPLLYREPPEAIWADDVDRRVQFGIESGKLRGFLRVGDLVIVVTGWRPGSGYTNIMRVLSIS
Procedure: as §1
as §2, with “0.03%. […]” for “0.03%.”

[3] = biological target: PKR WT (Homo sapiens, UniProt P30613); experiment: PKR WT enzymatic assay AC50; details: wild type PKR
Chain of PKR WT (P30613 whole entry): as the sequence (P30613 whole entry R510Q) above, with Q510R counted along it
Procedure: as §1, §2
as §3, with “wt” for “R532W”, “(0.48” for “(0.36”, “(0.15” for “(0.1”

Chain of PKR R532W (P30613 whole entry R532W): as the sequence (P30613 whole entry R510Q) above, with Q510R, R532W counted along it

AC50 [1] [µM] | AC50 [2] [µM] | AC50 [3] [µM] | SMILES
1.01 to 10 | > 10 | 1.01 to 10 | CC(C)(C)C1(O)CN(C(=O)c2ccc(NS(=O)(=O)c3cccc4cccnc34)cc2)C1 [Compound 31, N-(4-(3-(tert-butyl)-3-hydroxyazetidine-1-carbonyl)phenyl)quinoline-8-sulfonamide]
1.01 to 10 | > 10 | 1.01 to 10 | CC(C)C1(O)CN(C(=O)c2ccc(NS(=O)(=O)c3cccc4cccnc34)cc2)C1 [Compound 32, N-(4-(3-hydroxy-3-isopropylazetidine-1-carbonyl)phenyl)quinoline-8-sulfonamide]
1.01 to 10 | > 10 | 1.01 to 10 | O=C(c1ccc(NS(=O)(=O)c2cccc3cccnc23)cc1)N1CC(O)(C2CC2)C1 [Compound 33, N-(4-(3-cyclopropyl-3-hydroxyazetidine-1-carbonyl)phenyl)quinoline-8-sulfonamide]
1.01 to 10 | > 10 | 1.01 to 10 | CCC1(O)CN(C(=O)c2ccc(NS(=O)(=O)c3cccc4cccnc34)cc2)C1 [Compound 34, N-(4-(3-ethyl-3-hydroxyazetidine-1-carbonyl)phenyl)quinoline-8-sulfonamide]
0.101 to 1 | 1.01 to 10 | 0.101 to 1 | CC(C)CC1(O)CN(C(=O)c2ccc(NS(=O)(=O)c3cccc4cccnc34)cc2)C1 [Compound 35, N-(4-(3-hydroxy-3-isobutylazetidine-1-carbonyl)phenyl)quinoline-8-sulfonamide]
1.01 to 10 | > 10 | 0.101 to 1 | CCCC1(O)CN(C(=O)c2ccc(NS(=O)(=O)c3cccc4cccnc34)cc2)C1 [Compound 36, N-(4-(3-hydroxy-3-propylazetidine-1-carbonyl)phenyl)quinoline-8-sulfonamide]
0.101 to 1 | > 10 | 0.101 to 1 | O=C(c1ccc(NS(=O)(=O)c2cccc3cccnc23)cc1)N1CC(O)(CC2CC2)C1 [Compound 37, N-(4-(3-(cyclopropylmethyl)-3-hydroxyazetidine-1-carbonyl)phenyl)quinoline-8-sulfonamide]
> 10 | > 10 | 1.01 to 10 | O=C(c1ccc(NS(=O)(=O)c2cccc3cccnc23)cc1)N1CC(O)(CCO)C1 [Compound 38, N-(4-(3-hydroxy-3-(2-hydroxyethyl)azetidine-1-carbonyl)phenyl)quinoline-8-sulfonamide]
> 10 | > 10 | > 10 | CC(O)C1(O)CN(C(=O)c2ccc(NS(=O)(=O)c3cccc4cccnc34)cc2)C1 (stereo not drawn) [Compound 39, N-(4-(3-hydroxy-3-(1-hydroxyethyl)azetidine-1-carbonyl)phenyl)quinoline-8-sulfonamide]
1.01 to 10 | > 10 | 1.01 to 10 | O=C(c1ccc(NS(=O)(=O)c2cccc3cccnc23)cc1)N1CC(O)(CCCO)C1 [Compound 40, N-(4-(3-hydroxy-3-(3-hydroxypropyl)azetidine-1-carbonyl)phenyl)quinoline-8-sulfonamide]
1.01 to 10 | > 10 | 1.01 to 10 | CC(O)CC1(O)CN(C(=O)c2ccc(NS(=O)(=O)c3cccc4cccnc34)cc2)C1 (stereo not drawn) [Compound 41, N-(4-(3-hydroxy-3-(2-hydroxypropyl)azetidine-1-carbonyl)phenyl)quinoline-8-sulfonamide]
> 10 | > 10 | > 10 | O=C(c1ccc(NS(=O)(=O)c2ccc(F)cc2F)cc1)N1CC(O)(c2cccc(C(F)(F)F)c2)C1 [Compound 42, 2,4-difluoro-N-(4-(3-hydroxy-3-(3-(trifluoromethyl)phenyl)azetidine-1-carbonyl)phenyl)benzenesulfonamide]
1.01 to 10 | > 10 | 1.01 to 10 | O=C(c1ccc(NS(=O)(=O)c2cccc3cnccc23)cc1)N1CC(O)(c2cccc(C(F)(F)F)c2)C1 [Compound 43, N-(4-(3-hydroxy-3-(3-(trifluoromethyl)phenyl)azetidine-1-carbonyl)phenyl)isoquinoline-5-sulfonamide]
1.01 to 10 | 1.01 to 10 | 1.01 to 10 | O=C(c1ccc(NS(=O)(=O)c2cccc3ncccc23)cc1)N1CC(O)(c2cccc(C(F)(F)F)c2)C1 [Compound 44, N-(4-(3-hydroxy-3-(3-(trifluoromethyl)phenyl)azetidine-1-carbonyl)phenyl)quinoline-5-sulfonamide]
0.101 to 1 | 1.01 to 10 | 0.101 to 1 | O=C(c1ccc(NS(=O)(=O)c2cccc3cccnc23)cc1F)N1CC(O)(Cc2ccccc2)C1 [Compound 45, N-(4-(3-benzyl-3-hydroxyazetidine-1-carbonyl)-3-fluorophenyl)quinoline-8-sulfonamide]
0.101 to 1 | 1.01 to 10 | 0.101 to 1 | O=C(c1ccc(NS(=O)(=O)c2cccc3cccnc23)c(F)c1)N1CC(O)(Cc2ccccc2)C1 [Compound 46, N-(4-(3-benzyl-3-hydroxyazetidine-1-carbonyl)-2-fluorophenyl)quinoline-8-sulfonamide]
1.01 to 10 | > 10 | 1.01 to 10 | O=C(c1ccc(NS(=O)(=O)c2ccccc2Cl)cc1)N1CC(O)(Cc2ccccc2)C1 [Compound 49, N-(4-(3-benzyl-3-hydroxyazetidine-1-carbonyl)phenyl)-2-chlorobenzenesulfonamide]
> 10 | > 10 | > 10 | O=C(c1ccc(NS(=O)(=O)c2ccccc2C(F)(F)F)cc1)N1CC(O)(Cc2ccccc2)C1 [Compound 51, N-(4-(3-benzyl-3-hydroxyazetidine-1-carbonyl)phenyl)-2-(trifluoromethyl)benzenesulfonamide]
1.01 to 10 | > 10 | 1.01 to 10 | O=C(c1ccc(NS(=O)(=O)c2cccc(Cl)c2Cl)cc1)N1CC(O)(Cc2ccccc2)C1 [Compound 52, N-(4-(3-benzyl-3-hydroxyazetidine-1-carbonyl)phenyl)-2,3-dichlorobenzenesulfonamide]
0.101 to 1 | 1.01 to 10 | 0.101 to 1 | O=C(c1ccc(NS(=O)(=O)c2cccc3cccnc23)cc1)N1CC(O)(Cc2cccc(F)n2)C1 [Compound 54, N-(4-(3-((6-fluoropyridin-2-yl)methyl)-3-hydroxyazetidine-1-carbonyl)phenyl)quinoline-8-sulfonamide]
0.101 to 1 | 1.01 to 10 | 0.101 to 1 | O=C(c1ccc(NS(=O)(=O)c2cccc3cccnc23)cc1)N1CC(O)(Cc2ccccn2)C1 [Compound 55, N-(4-(3-hydroxy-3-(pyridin-2-ylmethyl)azetidine-1-carbonyl)phenyl)quinoline-8-sulfonamide]
0.101 to 1 | > 10 | 1.01 to 10 | Cc1cccc(CC2(O)CN(C(=O)c3ccc(NS(=O)(=O)c4cccc5cccnc45)cc3)C2)n1 [Compound 56, N-(4-(3-hydroxy-3-((6-methylpyridin-2-yl)methyl)azetidine-1-carbonyl)phenyl)quinoline-8-sulfonamide]
> 10 | > 10 | > 10 | O=C(c1ccc(NS(=O)(=O)c2cccc3nonc23)cc1)N1CC(O)(Cc2ccccc2)C1 [Compound 69]
